Columns and labels:
Assay in all cases: relative viability (nuclei count vs DMSO), 5 days (fraction); higher = more cells survive
[1] = system: HOP-62
Procedure, shortened: (§1)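 Relative viability is defined as nuclei in treated wells over nuclei in vehicle wells. Duplicate plates were run and medians reported. Lung cancer cell lines in 1536-well plates were dosed by pin tool one day after seeding, with one drug or with a fixed anchor-drug dose plus five library-drug doses (not always all listed) in √10 steps, and nuclei were counted after 5 days.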

[2] = system: LCLC-103H
Procedure, shortened: as §1

[3] = system: LOU-NH91
Procedure, shortened: as §1

[4] = system: NCI-H2126
Procedure, shortened: as §1

[5] = system: NCI-H460
Procedure, shortened: as §1

[6] = system: NCI-H520
Procedure, shortened: as §1

[7] = system: NCI-H2170
Procedure, shortened: as §1

[8] = system: NCI-H727
Procedure, shortened: as §1

[9] = system: EMC-BAC-2
Procedure, shortened: as §1

[10] = system: NCI-H650
Procedure, shortened: as §1

[11] = system: NCI-H1437
Procedure, shortened: as §1

[12] = system: ChaGo-K-1
Procedure, shortened: as §1

[13] = system: NCI-H23
Procedure, shortened: as §1

[14] = system: NCI-H1793
Procedure, shortened: as §1

[15] = system: NCI-H2009
Procedure, shortened: as §1

[16] = system: NCI-H647
Procedure, shortened: as §1

[17] = system: SW 1573
Procedure, shortened: as §1

[18] = system: NCI-H441
Procedure, shortened: as §1

[19] = system: NCI-H2347
Procedure, shortened: as §1

[20] = system: EPLC-272H
Procedure, shortened: as §1

[21] = system: NCI-H2023
Procedure, shortened: as §1

[22] = system: HCC-44
Procedure, shortened: as §1

[23] = system: NCI-H2405
Procedure, shortened: as §1

O=c1[nH]c2ccccc2n1C1CCN(CCCC(c2ccc(F)cc2)c2ccc(F)cc2)CC1 [Pimozide] + CCNC(=O)c1noc(-c2cc(C(C)C)c(O)cc2O)c1-c1ccc(CN2CCOCC2)cc1 [Luminespib] (partner 0.01 µM)
relative viability ([1]; first compound 0.08 µM): 0.995 | relative viability ([1]; first compound 0.253 µM): 0.875 | relative viability ([1]; first compound 0.8 µM): 0.709 | relative viability ([1]; first compound 2.53 µM): 0.904 | relative viability ([1]; first compound 8 µM): 0.873 | relative viability ([2]; first compound 0.08 µM): 0.942 | relative viability ([2]; first compound 0.253 µM): 1.01 | relative viability ([2]; first compound 0.8 µM): 0.762 | relative viability ([2]; first compound 2.53 µM): 0.899 | relative viability ([2]; first compound 8 µM): 0.948 | relative viability ([3]; first compound 0.08 µM): 0.377 | relative viability ([3]; first compound 0.253 µM): 0.345 | relative viability ([3]; first compound 0.8 µM): 0.399 | relative viability ([3]; first compound 2.53 µM): 0.359 | relative viability ([3]; first compound 8 µM): 0.313 | relative viability ([4]; first compound 0.08 µM): 0.901 | relative viability ([4]; first compound 0.253 µM): 0.889 | relative viability ([4]; first compound 0.8 µM): 0.842 | relative viability ([4]; first compound 2.53 µM): 0.877 | relative viability ([4]; first compound 8 µM): 0.839 | relative viability ([5]; first compound 0.08 µM): 0.0367 | relative viability ([5]; first compound 0.253 µM): 0.0252 | relative viability ([5]; first compound 0.8 µM): 0.0202 | relative viability ([5]; first compound 2.53 µM): 0.0243 | relative viability ([5]; first compound 8 µM): 0.0256 | relative viability ([6]; first compound 0.08 µM): 0.227 | relative viability ([6]; first compound 0.253 µM): 0.219 | relative viability ([6]; first compound 0.8 µM): 0.194 | relative viability ([6]; first compound 2.53 µM): 0.227 | relative viability ([6]; first compound 8 µM): 0.219 | relative viability ([7]; first compound 0.08 µM): 0.527 | relative viability ([7]; first compound 0.253 µM): 0.73 | relative viability ([7]; first compound 0.8 µM): 0.779 | relative viability ([7]; first compound 2.53 µM): 0.624 | relative viability ([7]; first compound 8 µM): 0.671 | relative viability ([8]; first compound 0.08 µM): 0.321 | relative viability ([8]; first compound 0.253 µM): 0.3 | relative viability ([8]; first compound 0.8 µM): 0.297 | relative viability ([8]; first compound 2.53 µM): 0.593 | relative viability ([8]; first compound 8 µM): 0.25 | relative viability ([9]; first compound 0.08 µM): 1.13 | relative viability ([9]; first compound 0.253 µM): 1.1 | relative viability ([9]; first compound 0.8 µM): 1.18 | relative viability ([9]; first compound 2.53 µM): 1.18 | relative viability ([9]; first compound 8 µM): 1.16 | relative viability ([10]; first compound 0.08 µM): 0.765 | relative viability ([10]; first compound 0.253 µM): 0.76 | relative viability ([10]; first compound 0.8 µM): 0.838 | relative viability ([10]; first compound 2.53 µM): 0.786 | relative viability ([10]; first compound 8 µM): 0.765 | relative viability ([11]; first compound 0.08 µM): 1.13 | relative viability ([11]; first compound 0.253 µM): 1.09 | relative viability ([11]; first compound 0.8 µM): 1.12 | relative viability ([11]; first compound 2.53 µM): 0.988 | relative viability ([11]; first compound 8 µM): 0.922 | relative viability ([12]; first compound 0.08 µM): 0.48 | relative viability ([12]; first compound 0.253 µM): 0.472 | relative viability ([12]; first compound 0.8 µM): 0.375 | relative viability ([12]; first compound 2.53 µM): 0.496 | relative viability ([12]; first compound 8 µM): 0.484 | relative viability ([13]; first compound 0.08 µM): 0.236 | relative viability ([13]; first compound 0.8 µM): 0.241 | relative viability ([13]; first compound 2.53 µM): 0.195 | relative viability ([13]; first compound 8 µM): 0.218 | relative viability ([14]; first compound 0.253 µM): 0.166 | relative viability ([14]; first compound 0.8 µM): 0.207 | relative viability ([14]; first compound 2.53 µM): 0.169 | relative viability ([14]; first compound 8 µM): 0.149 | relative viability ([15]; first compound 0.08 µM): 0.984 | relative viability ([15]; first compound 0.253 µM): 1.01 | relative viability ([15]; first compound 0.8 µM): 0.981 | relative viability ([15]; first compound 2.53 µM): 1.05 | relative viability ([15]; first compound 8 µM): 0.842 | relative viability ([16]; first compound 0.08 µM): 0.095 | relative viability ([16]; first compound 0.253 µM): 0.0882 | relative viability ([16]; first compound 0.8 µM): 0.196 | relative viability ([16]; first compound 2.53 µM): 0.096 | relative viability ([16]; first compound 8 µM): 0.109 | relative viability ([17]; first compound 0.08 µM): 0.214 | relative viability ([17]; first compound 0.253 µM): 0.301 | relative viability ([17]; first compound 0.8 µM): 0.188 | relative viability ([17]; first compound 2.53 µM): 0.223 | relative viability ([17]; first compound 8 µM): 0.198 | relative viability ([18]; first compound 0.08 µM): 0.413 | relative viability ([18]; first compound 0.253 µM): 0.404 | relative viability ([18]; first compound 0.8 µM): 0.332 | relative viability ([18]; first compound 2.53 µM): 0.311 | relative viability ([18]; first compound 8 µM): 0.3 | relative viability ([19]; first compound 0.253 µM): 0.3 | relative viability ([19]; first compound 0.8 µM): 0.374 | relative viability ([19]; first compound 2.53 µM): 0.582 | relative viability ([19]; first compound 8 µM): 0.266 | relative viability ([20]; first compound 0.08 µM): 0.622 | relative viability ([20]; first compound 0.253 µM): 0.557 | relative viability ([20]; first compound 0.8 µM): 0.185 | relative viability ([20]; first compound 2.53 µM): 0.244 | relative viability ([20]; first compound 8 µM): 0.206 | relative viability ([21]; first compound 0.08 µM): 0.755 | relative viability ([21]; first compound 0.253 µM): 0.707 | relative viability ([21]; first compound 0.8 µM): 0.709 | relative viability ([21]; first compound 2.53 µM): 0.507 | relative viability ([21]; first compound 8 µM): 0.596 | relative viability ([22]; first compound 0.08 µM): 1.17 | relative viability ([22]; first compound 0.253 µM): 1.02 | relative viability ([22]; first compound 0.8 µM): 0.953 | relative viability ([22]; first compound 2.53 µM): 0.994 | relative viability ([22]; first compound 8 µM): 1.01 | relative viability ([23]; first compound 0.08 µM): 0.654 | relative viability ([23]; first compound 0.253 µM): 0.717 | relative viability ([23]; first compound 0.8 µM): 0.618 | relative viability ([23]; first compound 2.53 µM): 0.559 | relative viability ([23]; first compound 8 µM): 0.315

Reference: the supplement of paper PMC10307832
